Earlier results as cited in PubChem BioAssay AID1259409 (Chemical Carcinogenesis Research Information System (CCRIS), 2018).

Test system: rodent chemically induced tumor inhibition, incidence and multiplicity
Assay: CCRIS tumor inhibitor studies
Settings: Route [Inhibitor]: ORAL, Species: RAT

O=C(O)CC(O)(CC(=O)O)C(=O)O
tumour outcome (control, treated, inhibition, significance) (Carcinogen: N-BUTYL-N-(4-HYDROXYBUTYL)NITROSAMINE, 3817-11-6, Dose [Inhibitor]: 4.85% IN BASAL DIET ADMINISTERED SIMULTANEOUSLY WITH CARCINOGEN DOSE FOR 20 WK (STUDY DURATION: 20 WK), Strain/Sex: F344/MALE, Target Tissue: Type of Lesion: BLADDER: CARCINOMA, Dose [Carcinogen]: 0.025% IN DRINKING WATER FOR 20 WK, Promoter: NONE USED): 3/15 (20%), 3/15 (20%), 0%, not significant
tumour outcome (control, treated, inhibition, significance) (Carcinogen: N-BUTYL-N-(4-HYDROXYBUTYL)NITROSAMINE, 3817-11-6, Dose [Inhibitor]: 4.85% IN BASAL DIET ADMINISTERED SIMULTANEOUSLY WITH CARCINOGEN DOSE FOR 20 WK (STUDY DURATION: 20 WK), Strain/Sex: F344/MALE, Target Tissue: Type of Lesion: BLADDER: PAPILLOMA, Dose [Carcinogen]: 0.025% IN DRINKING WATER FOR 20 WK (FOR A TOTAL INTAKE OF 4.1 MMOL/RAT), Promoter: NONE USED): 4/15 (27%), 2/15 (13%), 50%, not significant
tumour outcome (control, treated, inhibition, significance) (Carcinogen: N-BUTYL-N-(4-HYDROXYBUTYL)NITROSAMINE, 3817-11-6, Dose [Inhibitor]: 6.50% IN BASAL DIET ADMINISTERED SIMULTANEOUSLY WITH CARCINOGEN DOSE FOR 20 WK (STUDY DURATION: 20 WK), Strain/Sex: F344/MALE, Target Tissue: Type of Lesion: BLADDER: CARCINOMA, Dose [Carcinogen]: 0.025% IN DRINKING WATER FOR 20 WK, Promoter: NONE USED): 3/15 (20%), 12/15 (80%), -300%, p<0.01
tumour outcome (control, treated, inhibition, significance) (Carcinogen: N-BUTYL-N-(4-HYDROXYBUTYL)NITROSAMINE, 3817-11-6, Dose [Inhibitor]: 6.50% IN BASAL DIET ADMINISTERED SIMULTANEOUSLY WITH CARCINOGEN DOSE FOR 20 WK (STUDY DURATION: 20 WK), Strain/Sex: F344/MALE, Target Tissue: Type of Lesion: BLADDER: PAPILLOMA, Dose [Carcinogen]: 0.025% IN DRINKING WATER FOR 20 WK (FOR A TOTAL INTAKE OF 6.8 MMOL/RAT), Promoter: NONE USED): 4/15 (27%), 3/15 (20%), 25%, not significant
tumour outcome (control, treated, inhibition, significance) (Carcinogen: N-ETHYL-N-(4-HYDROXYBUTYL)NITROSAMINE, 54897-62-0, Dose [Inhibitor]: 4.85% IN BASAL DIET ADMINISTERED SIMULTANEOUSLY WITH CARCINOGEN DOSE FOR 20 WK (STUDY DURATION: 20 WK), Strain/Sex: F344/MALE, Target Tissue: Type of Lesion: BLADDER: CARCINOMA, Dose [Carcinogen]: 0.021% IN DRINKING WATER FOR 20 WK, Promoter: NONE USED): 13/15 (87%), 14/15 (93%), -8%, not significant
tumour outcome (control, treated, inhibition, significance) (Carcinogen: N-ETHYL-N-(4-HYDROXYBUTYL)NITROSAMINE, 54897-62-0, Dose [Inhibitor]: 4.85% IN BASAL DIET ADMINISTERED SIMULTANEOUSLY WITH CARCINOGEN DOSE FOR 20 WK (STUDY DURATION: 20 WK), Strain/Sex: F344/MALE, Target Tissue: Type of Lesion: BLADDER: PAPILLOMA, Dose [Carcinogen]: 0.021% IN DRINKING WATER FOR 20 WK, Promoter: NONE USED): 14/15 (93%), 13/15 (87%), 7%, not significant
tumour outcome (control, treated, inhibition, significance) (Carcinogen: N-ETHYL-N-(4-HYDROXYBUTYL)NITROSAMINE, 54897-62-0, Dose [Inhibitor]: 6.50% IN BASAL DIET ADMINISTERED SIMULTANEOUSLY WITH CARCINOGEN DOSE FOR 20 WK (STUDY DURATION: 20 WK), Strain/Sex: F344/MALE, Target Tissue: Type of Lesion: BLADDER: CARCINOMA, Dose [Carcinogen]: 0.021% IN DRINKING WATER FOR 20 WK, Promoter: NONE USED): 13/15 (87%), 15/15 (100%), -15%, not significant
tumour outcome (control, treated, inhibition, significance) (Carcinogen: N-ETHYL-N-(4-HYDROXYBUTYL)NITROSAMINE, 54897-62-0, Dose [Inhibitor]: 6.50% IN BASAL DIET ADMINISTERED SIMULTANEOUSLY WITH CARCINOGEN DOSE FOR 20 WK (STUDY DURATION: 20 WK), Strain/Sex: F344/MALE, Target Tissue: Type of Lesion: BLADDER: PAPILLOMA, Dose [Carcinogen]: 0.021% IN DRINKING WATER FOR 20 WK, Promoter: NONE USED): 14/15 (93%), 13/15 (87%), 7%, not significant
tumour outcome (control, treated, inhibition, significance) (Carcinogen: N-ETHYL-N-HYDROXYETHYLNITROSAMINE, 13147-25-6, Dose [Inhibitor]: 0, 5% IN DIET OF UNILATERALLY NEPHRECTOMIZED RATS BEGINNING POST CARCINOGEN TREATMENT AND CONTINUING FOR 18 WK (STUDY DU, Strain/Sex: WISTAR/MALE, Target Tissue: Type of Lesion: KIDNEY: RENAL CELL TUMOR, Dose [Carcinogen]: 1000 PPM IN DIET FOR 2 WK, Promoter: POTASSIUM DIBASIC PHOSPHATE, 7758-11-4): 15/15 (100%), 4/14 (29%), 71%, p<0.05
